The values below come from paper PMC10388362, “Fluorescent Ligands Enable Target Engagement Studies for the Intracellular Allosteric Binding Site of the Chemokine Receptor CXCR2” (Journal of Medicinal Chemistry, 2023).

Structures are written as SMILES. Values joined by “and” are separate entries in the source; they are usually repeats but may differ in a detail not shown here. Identical values can stand only once.

Data set [1] deals with T1, CXCR2 (Homo sapiens, UniProt P25025).
T1 construct: Promega pNLF1-C (Nluc) #CXCR20TN00; host or cells: HEK293T, transient transfection (PEI)
T1 sequence (P25025 1-360): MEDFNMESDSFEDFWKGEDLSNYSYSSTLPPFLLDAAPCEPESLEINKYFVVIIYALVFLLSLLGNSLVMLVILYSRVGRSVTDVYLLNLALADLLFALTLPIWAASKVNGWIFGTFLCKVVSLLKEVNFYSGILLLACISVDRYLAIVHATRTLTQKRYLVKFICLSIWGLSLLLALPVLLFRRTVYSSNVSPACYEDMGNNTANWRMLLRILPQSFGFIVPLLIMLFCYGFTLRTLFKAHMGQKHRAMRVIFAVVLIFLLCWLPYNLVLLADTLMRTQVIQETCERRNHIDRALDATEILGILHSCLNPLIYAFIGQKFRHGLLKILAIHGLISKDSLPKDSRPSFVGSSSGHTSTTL
As to the kind of experiment: Live cell NanoBRET saturation binding (HEK293T cells expressing CXCR2_Nluc). The method, then:
HEK293T cells were transfected with the plasmid (5.5 μg) for CXCR2_Nluc using polyethylenimine (PEI) as transfection reagent (PEI/DNA ratio 3:1). After 24 h at 37 °C and 5% CO2, the cells were detached with DMEM and transferred to a white F-bottom 384-well plate (10,000 cells/well), which was coated with 5 μL/well poly-D-lysine (0.1 mg/mL, dissolved in water), and incubated for further 24 h at 37 °C and 5% CO2. Subsequently, the cells were washed with phosphate-buffered saline (Gibco DPBS, with CaCl2 and MgCl2). The assay medium (Gibco DMEM/F12, 15 mM HEPES, no phenol red supplemented with 5% FBS) was added and the cells were incubated at 37 °C for 30 min. […]
After 120 min of incubation at 37 °C, 5 μL of a furimazine solution (final assay dilution: 1:2500, diluted with assay medium) was added. Subsequent to a further incubation of 5 min in the dark at 37 °C, BRET ratios were measured with a CLARIOstar microplate reader using 620/10 and 475/30 nm emission filters. Total, nonspecific and specific binding, which was calculated as a difference of total and nonspecific binding, were analyzed using the algorithms for one-site saturation binding in PRISM9.5 (GraphPad). To determine the inhibition constants (Ki) of the potential competitors, data were normalized to total and nonspecific binding and analyzed using the one-site-fit Ki equation in PRISM9.5 (GraphPad).
(In general: In BRET a luciferase serves as donor, and the signal depends on an acceptor being close.)

Data set [2] addresses T1, CXCR2. As to the kind of experiment: Live cell NanoBRET association and dissociation kinetic assay. The class given is binding. Particulars: 37 °C. As to the method: HEK293T cells were transfected with the plasmid (5.5 μg) for CXCR2_Nluc using polyethylenimine (PEI) as the transfection reagent (PEI/DNA ratio 3:1). After 24 h at 37 °C and 5% CO2, the cells were detached with DMEM and transferred to a white F-bottom 384-well plate (10,000 cells/well), which was coated with 5 μL/well poly-D-lysine (0.1 mg/mL, dissolved in water), and incubated for further 24 h at 37 °C and 5% CO2. Subsequently, the cells were washed with phosphate-buffered saline (Gibco DPBS, with CaCl2 and MgCl2). 15 μL of the assay medium (Gibco DMEM/F12, 15 mM HEPES, no phenol red supplemented with 5% FBS) and 5 μL of vivazine (final assay dilution: 1:300 in the assay buffer) were added and the cells were incubated at 37 °C for 90 min. Then, 5 μL of the fluorescent ligand (9a), diluted to varying concentrations (final assay concentrations: 10–0.5 nM in the assay medium) was transferred to a 384-well plate. For the determination of nonspecific binding, we added a solution of the fluorescent ligand (9a) and a nonlabeled competitor dissolved in the assay medium (3, final assay concentration: 10 μM) instead. BRET ratios were measured with a CLARIOstar microplate reader using 620/10 and 475/30 nm emission filters over time. The obtained data were analyzed using the association kinetics (two or more conc. of hot ligand) algorithm in PRISM9.5 (GraphPad) to determine the association kinetics.
After running the association assay in cells for at least 133 min, 1 μL of an unlabeled competitor dissolved in the assay buffer (3, final assay concentration: 10 μM) was added. For control experiments, we added 1 μL of the assay medium instead of the competitor solution. BRET ratios were measured with a CLARIOstar microplate reader using 620/10 and 475/30 nm emission filters over time. Specific BRET ratios were calculated as a difference of total and nonspecific binding. The obtained data were analyzed using the dissociation one phase exponential decay algorithm in PRISM9.5 (GraphPad) to determine the dissociation kinetics.

Where [3] appears, read: cells, 9a 1 nM, single determinations.
Where [4] appears, read: cells, 9a 5 nM, single determinations.
[5] abbreviates: cells, 9a 10 nM, single determinations.
The mark [6] stands for this setting: live HEK293T cells expressing CXCR2_Nluc, mean.

By koff is commonly meant the first-order rate constant of dissociation. The kon is the rate constant with which the complex forms. Read a low kon as slow association. A word on the residence time: it is the mean lifetime of the complex, commonly the reciprocal of the off-rate. Consider `Cc1ccc([C@H](Nc2c(Nc3cccc(C(=O)NCc4cn(CCOCCOCCOCCNC(=O)c5ccc(C(=O)[O-])c(-c6c7ccc(=[N+](C)C)cc-7oc7cc(N(C)C)ccc67)c5)nn4)c3O)c(=O)c2=O)C(C)(C)C)o1` [9a, (R)-4-((2-(2-(2-(2-(4-((3-((2-((2,2-Dimethyl-1-(5-methylfuran-2-yl)propyl)amino)-3,4-dioxocyclobut-1-en-1-yl)amino)-2-hydroxybenzamido)methyl)-1H-1,2,3-triazol-1-yl)ethoxy)ethoxy)ethoxy)ethyl)carbamoyl)-2-(6-(dimethylamino)-3-(dimethyliminio)-3H-xanthen-9-yl)benzoate], for which the Kd at CXCR2 [1] (live HEK293T cells transiently expressing CXCR2_Nluc, 37 °C, read-out: Kd (equilibrium saturation binding)) worked out at 0.25 ± 0.01 nM. In addition, the “passage of the cell membrane” value on CXCR2 [1] (live HEK293T cells, inferred from cellular binding) was “able to pass the cell membrane”. In addition, at CXCR2 [2] (setting [3]), the koff is 8.88e-05 s⁻¹; the “koff [min-1]” value is 0.00837 min⁻¹ and 0.00621 min⁻¹ and 0.00861 min⁻¹; the “tr” value is 187.6 min and 119.5 min and 161.1 min and 116.1 min. In addition, on CXCR2 [2] (setting [4]), the off-rate (koff) is 9.75e-05 s⁻¹; the “koff [min-1]” value is 0.0072 min⁻¹ and 0.00855 min⁻¹ and 0.00476 min⁻¹; the “tr” value is 210.2 min and 170.9 min and 138.9 min and 117.0 min. Besides, at CXCR2 [2] (setting [5]), the koff is 7.53e-05 s⁻¹; the “koff [min-1]” value is 0.00791 min⁻¹ and 0.00898 min⁻¹ and 0.00859 min⁻¹; the “tr” value is 221.0 min and 126.4 min and 111.4 min and 116.4 min. Further, at CXCR2 [2] (live HEK293T cells expressing CXCR2_Nluc), the Kd was 0.2 ± 0.02 nM. At CXCR2 [2] (setting [6]), this compound gave a koff of 0.000122 s⁻¹, a kon of 620000 M⁻¹ s⁻¹ and a residence time tr of 146 ± 10 min. Moreover, the residence time at CXCR2 [2] (live HEK293T cells expressing CXCR2_Nluc, mean, read-out: residence time tr) was 146 min.
